SMILES strings stand for the structures.

The subject of the first series is thrombus. Kind of series: Inhibiting effect on thrombosis (by-pass between left juglar vein and right carotid artery, silk thread). The conditions noted are these: Rattus norvegicus, po, 5 h, read-out: Thrombosis inh.: thrombosis inhibition rate. In kind it is in vivo, SD type male rates. The gist of the method: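 Arteriovenous shunt with silk thread and heparin saline, run as three successive 15-min circulations, with thrombus wet weight measured on the thread each time. Compound given orally in carboxymethyl cellulose suspension at 100 mg/kg 5 h before the first circulation. Inhibition rate derived against control circulations.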
For `COc1ccc(C(=O)c2ccccc2)cc1` [compound 28], the inhibition in vivo at 100 mg/kg stood at 7.3%.

Staying with this series, now noted: Rattus norvegicus; 100 mg/kg oral, 5 hours before first blood circulation, rats; read-out: Thrombosis inh.: thrombosis inhibition rate.
As for `Cc1cc(C)c(C(=O)c2ccccc2C)c(C)c1` [Active ingredient No. 3], the inhibition in vivo at 100 mg/kg was determined as 38.3%.
For the molecule `CCCCCCc1ccc(C(=O)c2ccc(CCCC)cc2)cc1` [Active ingredient No. 5], the inhibition in vivo at 100 mg/kg was found to be 20.3%.
Consider `CCCCCCc1ccc(C(=O)c2ccc(CCC)cc2)cc1` [Active ingredient No. 6], for which the inhibition in vivo at 100 mg/kg stood at 15.9%.
On the same count and under the same terms, the result for `CCc1ccc(C(=O)c2ccc(CC)cc2)cc1` [compound 106] reads 20.2%; that for `CCc1ccc(C(=O)c2ccc(OC)cc2)cc1` [compound 107], 19.6%.
As to `Cc1cc(C)c(C(=O)c2ccc(O)cc2)c(C)c1` [compound 108], the inhibition in vivo at 100 mg/kg was 34.7%.
In the case of `O=C(c1ccccc1)c1ccc(O)cc1` [compound 109], the inhibition in vivo at 100 mg/kg is 20.3%.

Another series relates to hind paws of male rats. Kind of series: Anti-inflammatory effect: acute carragheenin edema method. The conditions noted are these: Rattus norvegicus, po, read-out: Anti-inf.: edema inhibition rate. In kind it is in vivo. The protocol:
The edema was induced by subcutaneous injection of 1% carragheenin suspension in saline to the hind paws of male rats weighting 150 to 180 g. Each sample was orally given at the dosage of 100 mg/kg just before the inoculation of carragheenin.
For the molecule `COc1ccc(C(=O)c2ccccc2)cc1` [compound 28], the inhibition in vivo at 100 mg/kg turned out to be 44.1%.
Same read-out and setting: the result for `CCc1ccc(C(=O)c2ccc(OC)cc2)cc1` [compound 107] reads 20.3%.

Staying with this series, now noted: Rattus norvegicus; 100 mg/kg oral, carragheenin edema, male rats (Table 2); read-out: Anti-inf.: edema inhibition rate.
As to `Cc1cc(C)c(C(=O)c2ccccc2C)c(C)c1` [Active ingredient No. 3], the inhibition in vivo at 100 mg/kg came to 40%.
`CCCCCCc1ccc(C(=O)c2ccc(CCCC)cc2)cc1` [Active ingredient No. 5]: the inhibition in vivo at 100 mg/kg stood at 46.3%.
With `CCCCCCc1ccc(C(=O)c2ccc(CCC)cc2)cc1` [Active ingredient No. 6], the inhibition in vivo at 100 mg/kg was found to be 44.2%.
Take `CCc1ccc(C(=O)c2ccc(CC)cc2)cc1` [compound 106]: the inhibition in vivo at 100 mg/kg was determined as 26.4%.
As to `Cc1cc(C)c(C(=O)c2ccc(O)cc2)c(C)c1` [compound 108], the inhibition in vivo at 100 mg/kg was determined as 10.5%.
For the molecule `O=C(c1ccccc1)c1ccc(O)cc1` [compound 109], the inhibition in vivo at 100 mg/kg came to 12.7%.

The series is the same for the next values; noted with them: Rattus norvegicus; oral, carragheenin edema, male rats (Table 2); read-out: 50% inhibition ED50 (values in brackets).
The term ED50 denotes the midpoint of the dose-response relation. With `Cc1cc(C)c(C(=O)c2ccccc2C)c(C)c1` [Active ingredient No. 3], the ED50 was found to be 290 mg/kg.

Test system in another series: not listed separately
The series is described as follows: in vivo. Particulars: mouse, in vivo, po. The protocol:
(§1) Each sample was dissolved in olive oil or dispersed in 1% Tween 20 aqueous solution.
Broadly, the LD50 is the dose at which mortality reaches 50%. Read a high LD50 as lower toxicity. `Cc1cc(C)c(C(=O)c2ccccc2C)c(C)c1` [Active ingredient No. 3] returned an LD50 at 72 h of 1500 mg/kg.
`CCCCCCc1ccc(C(=O)c2ccc(CCCC)cc2)cc1` [Active ingredient No. 5] gave an LD50 at 72 h of 5000 mg/kg.
The molecule `CCCCCCc1ccc(C(=O)c2ccc(CCC)cc2)cc1` [Active ingredient No. 6] came in with an LD50 at 72 h of 5000 mg/kg.

A further series relates to male mice. The series is described as follows: in vivo. The conditions noted are these: oral, male mice, within 72 hours (Table 2). The protocol: as §1
On to `COc1ccc(C(=O)c2ccccc2)cc1` [compound 28], for which the “Acute toxicity LD50” value is reported as above 10000 mg/kg.

The next series has as its system male mice. Kind of series: Analgesic effect: painful stretchings following intraperitoneal 0.7% acetic acid. The conditions noted are these: Mus musculus, po, read-out: Analgesic: percentage diminition of times of painful stretching.
Method: Each sample was orally administered in the dosage of 100 mg/kg before injection of acetic acid.
On to `Cc1cc(C)c(C(=O)c2ccccc2C)c(C)c1` [Active ingredient No. 3], for which the inhibition in vivo at 100 mg/kg came to 11.3%.
Consider `CCCCCCc1ccc(C(=O)c2ccc(CCCC)cc2)cc1` [Active ingredient No. 5], for which the inhibition in vivo at 100 mg/kg was found to be 12.1%.
`CCCCCCc1ccc(C(=O)c2ccc(CCC)cc2)cc1` [Active ingredient No. 6]: the inhibition in vivo at 100 mg/kg was determined as 14.5%.
Take `COc1ccc(C(=O)c2ccccc2)cc1` [compound 28]: the inhibition in vivo at 100 mg/kg came out at 4.2%.
Turning to `CCc1ccc(C(=O)c2ccc(CC)cc2)cc1` [compound 106], the inhibition in vivo at 100 mg/kg is 7.3%.
For `CCc1ccc(C(=O)c2ccc(OC)cc2)cc1` [compound 107], the inhibition in vivo at 100 mg/kg came to 13.2%.
The same measure, in the same setting: the result for `Cc1cc(C)c(C(=O)c2ccc(O)cc2)c(C)c1` [compound 108] reads 3.1%; that for `O=C(c1ccccc1)c1ccc(O)cc1` [compound 109], 2.6%.

For a further series, the system named is platelet. Kind of series: Blood platelet aggregation inhibiting effect (collagen-induced). In kind it is cell-based, rabbits. The conditions noted are these: Oryctolagus cuniculus, Platelet; 10^-4 mole, collagen inducer, rabbit PRP; read-out: Blood platelet agg. inh.: percentage inhibition of platelet aggregation. From the text: Male rabbits (Japan original white strain 3.3 to 3.6 kg) were anesthetized with Thiopental sodium and blood was sampled from the carotid artery.
Usually inhibition stands for the percentage by which the read-out fell short of the control. `Cc1cc(C)c(C(=O)c2ccccc2C)c(C)c1` [Active ingredient No. 3]: the inhibition at 100 µM came to 17.3%.
In the case of `CCCCCCc1ccc(C(=O)c2ccc(CCCC)cc2)cc1` [Active ingredient No. 5], the inhibition at 100 µM was determined as 15.3%.
For `CCCCCCc1ccc(C(=O)c2ccc(CCC)cc2)cc1` [Active ingredient No. 6], the inhibition at 100 µM turned out to be 17.8%.
For the molecule `COc1ccc(C(=O)c2ccccc2)cc1` [compound 28], the inhibition at 100 µM is 20.4%.
As to `CCc1ccc(C(=O)c2ccc(CC)cc2)cc1` [compound 106], the inhibition at 100 µM was 20.3%.
As to `CCc1ccc(C(=O)c2ccc(OC)cc2)cc1` [compound 107], the inhibition at 100 µM came out at 20.3%.
As to `Cc1cc(C)c(C(=O)c2ccc(O)cc2)c(C)c1` [compound 108], the inhibition at 100 µM turned out to be 28.4%.
Turning to `O=C(c1ccccc1)c1ccc(O)cc1` [compound 109], the inhibition at 100 µM came to 13.7%.

Source of the values: patent publication US4145444A, “Anti-inflammatory agent of benzoyl derivative” (priority 1977, dated 1979).
